From US6316644A, “Pilyethoxylated retinamide derivatives and process for preparing the same” (LG Chemical Ltd., priority 1998, dated 2001)
Where two headings read alike, the source gives them in different places. Values belong to the molecule of their own block, whether it stands above or below them.

Columns and labels:
skin photoaging = details: cited from earlier work
[1] = relative to retinoic acid; FASEB J., 10, 1014-1024, 1996; cited from earlier work
skin = details: guinea pig, in vivo
Method: Assoc. Food and Drug Officials, US. Appraisal of the safety of chemicals in Food, Drugs and Cosmetics, pp46-59, Texas State Dept. of Health, Austin, Tex. and 2 Federal Register (1973): Method of testing primary irritant substances 38(187): pp1500-1541]. Six kinds of the test solutions were prepared at the concentration of 0.3% by using o/w formulation or Lexol GT-865 as the carrier vehicle. First, hair was removed from the portion (dorsal skin of mouse) for applying the test solution and then the naked portion was adapted to the environmental circumstance for 24 hours in order to minimize the skin irritability. The test solution and gauze were applied to the established portion (1.5 cm×1.5 cm) for applying the test solution, which was then sealed with the solid thin film and fixed with the elastic bandage for 48 hours in order to inhibit the evaporation and loss of the test sample. After 2 and 24 hours from removal of the closed patch (i. e. 50 and 72 hours after patch application, respectively), the degree of irritation was determined.

[2] = pH 7.4
Method: The tests for identification of pharmacological activities of the compound of formula (I) according to the present invention were conducted as follows. First, the test for percutaneous absorption was carried out by cutting off the dorsal skin from 8-weeks aged female mouse, applying the test sample (35 mM) to the skin and then analysing the percutaneous absorption of the test sample by means of an apparatus for measuring percutaneous absorption (Franz cell) and HPLC.
Specifically, the dorsal skin of 8-weeks aged female mouse (naked mouse) was cut off and then 35 ml solution of the test sample was applied in an amount of 250 μl to the skin having a size of 1.7cm^2. Using the apparatus for measuring percutaneous absorption (Franz cell), after 24 hours, the absorbed materials were extracted respectively from 7 ml of the receptor solution [50 mM PBS buffer solution (pH=7.4) containing 2% VolPO20 Polyethylene oleyl ether (HLB=16)] and the skin and then quantitatively analyzed by high pressure liquid chromatography (HPLC).

[3] = system: skin of 9-weeks aged naked female mouse; assay: Test for organ incubation of skin (MTT assay)
Method: (§1) The test for organ incubation of skin was carried out by MTT assay method using naked female mouse.

human fibroblasts = assay: Test for collagen synthesis (tritiated proline, CSP)
Method: The same count of human fibroblasts was incubated in each well of 24-well plate for 24 hours and then the test sample was applied thereto at the concentration of 10^-4 to 10^-7 w %/ml. After 2 hours, tritiated proline (L-2,3-^3 H proline) was applied to the plate and then further incubated for 24 hours. The amount of collagen as newly synthesized and secreted by fibroblasts utilizing the culture medium was measured by calculating the amount of CPS (collagenous sensitive protein) on the basis of cpm (counting per minute) number of L-2,3-^3 H proline.

auricular lymph node = details: mouse, in vivo
Method: Toxicol. 10(3); 173-180]. […] Each of the test sample was applied to both ears of Blab/c mouse in an amount of 50μl for 3 days and then auricular lymph node was isolated from mouse. Lymph node was micronized to monocellular state and then incubated for 24 hours with addition of radioisotope (^3 H-thymidine).

[4] = lipid-soluble; cited from earlier work
[5] = system: skin of 9-weeks aged naked female mouse
Method: as §1

V79-4 cells = assay: Cytotoxicity test (MTT assay); format: cell-based, Chinese hamster; details: FIG. 2
Method: The cytotoxicity test was carried out by MTT assay method using V79-4 cells.

[6] = 0.3% in Lexol GT-865, MTT assay

Molecule: COc1ccc(C(C)=O)c(OC(=O)/C=C(C)/C=C/C=C(C)/C=C/C2=C(C)CCCC2(C)C)c1 [2-(all-trans-retinoyloxy)-4-methoxyacetophenone]
inhibition of skin cancer and photoaging (skin photoaging; U.S. Pat. No. 4,677,120): exhibits an effect of inhibiting skin cancer and photoaging

Molecule: CC1=C(/C=C/C(C)=C/C=C/C(C)=C/C(=O)Nc2ccc(O)cc2)C(C)(C)CCC1 [N-(4-hydroxy-phenyl)retinamide (4-HPR), N-(4-hydroxy-phenyl)retinamide]
toxicity [1]: relatively reduced toxicity

Molecule: CC1=C(/C=C/C(C)=C/C=C/C(C)=C/C(=O)O)C(C)(C)CCC1 [Retinoic acid, all-trans-retinoic acid]
difference between the irritation degrees (skin): no significant difference
Receptor solution (amount absorbed) [2]: 11.40 nmol
skin photoaging (skin photoaging; cream preparation applied to skin, JAMA 259, 1988): can be improved
irritation ([3]; 0.3%): strong irritation
Degree of irritation [3, 6]: 0.11
Safety [3, 6]: strong irritation
activation at 1e-06 w %/ml (human fibroblasts; Homo sapiens, Fibroblast, read-out: increase in collagen synthesis): ≤ 21.7%
allergy induction in comparison to ethanol (auricular lymph node): six times or more
skin absorption [4]: low skin absorption

Receptor solution (amount absorbed) [2]: 0.48 nmol
allergy induction in comparison to ethanol (auricular lymph node): six times or more
Molecule: CCCCCCCCCCCCCCCC(=O)OC/C=C(C)/C=C/C=C(C)/C=C/C1=C(C)CCCC1(C)C [Retinol palmitate, retinol palmitate]
difference between the irritation degrees (skin): no significant difference
effect of increasing collagen synthesis (human fibroblasts; 10^-4 to 10^-7 w %/ml, FIG. 1): does substantially not exhibit an effect of increasing collagen synthesis
Degree of irritation [5]: 0.34
Safety [5]: minute irritation
irritation [5]: weak irritation

Receptor solution (amount absorbed) [2]: 11.48 nmol
Molecule: CC1=C(/C=C/C(C)=C/C=C/C(C)=C/CO)C(C)(C)CCC1 [Retinol, retinol]

Molecule: CCCCCCCCCCCCOS(=O)(=O)[O-].[Na+] [Sodium lauryl sulfate]
Safety ([3]; control group, <0.05%): minute irritation
Safety ([3]; control group, <0.25%): moderate irritation
Safety ([3]; control group, <0.5%): strong irritation

Molecule: CC1=C(/C=C/C(C)=C/C=C/C(C)=C/C(=O)O[C@@H]2O[C@H](C(=O)O)[C@@H](O)[C@H](O)[C@H]2O)C(C)(C)CCC1 [retinoyl β-glucuronide (RAG), retinoyl β-glucuronide]
toxicity [1]: relatively reduced toxicity

Molecule: polyethoxylated retinamide of formula (I) (R=methyl, n=9.8)
cytotoxicity (V79-4 cells; 10^-3 w %/ml or more): exhibits gradually
cytotoxicity (V79-4 cells; 10^-4 w %/ml and below): only a weak toxicity
effect of increasing collagen synthesis at cytotoxic concentration (human fibroblasts; 10^-3 w %/ml or more): does not exhibit any increasing effect
increase in collagen synthesis (highest effect) (human fibroblasts; 10^-7 w %/ml): 33.8%
concentration at which effect of increasing collagen synthesis begins (human fibroblasts; limiting concentration at which any toxicity is not caused): below 10^-4 w %/ml
